# Laboratory results as given in article PMC4767141, “Discovery of Potent, Orally Bioavailable, Small-Molecule Inhibitors of WNT Signaling from a Cell-Based Pathway Screen” (Journal of Medicinal Chemistry, 2015).
# Key:
# M3 (h) = target: T1, M3 (h) (Homo sapiens, UniProt P20309); assay: CEREP binding panel; conditions: antagonist radioligand, read-out: % Inhibition of Control Specific Binding
# T1 construct: purchased Millipore KinaseProfiler (kinases); Cerep (receptors and ion channels)
# SRC = target: T2, SRC (Homo sapiens, UniProt P12931); assay: Millipore kinase panel; assay type: biochemical; conditions: read-out: % Control
# T2 construct: purchased Millipore KinaseProfiler (kinases); Cerep (receptors and ion channels)
# FGFR2 = target: T3, FGFR2 (Homo sapiens, UniProt P21802); assay: Millipore kinase panel; assay type: biochemical; conditions: read-out: % Control
# T3 construct: purchased Millipore KinaseProfiler (kinases); Cerep (receptors and ion channels)
# [1] = tested on: Ca2+ channel (L, verapamil site) (phenylalkylamine); assay: CEREP binding panel; conditions: 10 μM, antagonist radioligand
# PRKX = target: T4, PRKX (Homo sapiens, UniProt P51817); assay: Millipore kinase panel; assay type: biochemical; conditions: read-out: % Control
# T4 construct: purchased Millipore KinaseProfiler (kinases); Cerep (receptors and ion channels)
# PIM-1 = target: T5, PIM-1 (Homo sapiens, UniProt P11309); assay: Millipore kinase panel; assay type: biochemical; conditions: read-out: % Control
# T5 construct: purchased Millipore KinaseProfiler (kinases); Cerep (receptors and ion channels)
# PKG1BETA = target: T6, PKG1BETA (Homo sapiens, UniProt Q13976); assay: Millipore kinase panel; assay type: biochemical; conditions: ATP at Km
# T6 construct: purchased Millipore
# MSSK1 = target: T7, MSSK1 (Homo sapiens, UniProt Q9UPE1); assay: Millipore kinase panel; assay type: biochemical; conditions: read-out: % Control
# T7 construct: purchased Millipore KinaseProfiler (kinases); Cerep (receptors and ion channels)
# NEK2 = target: T8, NEK2 (Homo sapiens, UniProt P51955); assay: Millipore kinase panel; assay type: biochemical; conditions: read-out: % Control
# T8 construct: purchased Millipore KinaseProfiler (kinases); Cerep (receptors and ion channels)
# CCK1 (CCKA) (h) = target: T9, CCK1 (CCKA) (h) (Homo sapiens, UniProt P32238); assay: CEREP binding panel; conditions: agonist radioligand, read-out: % Inhibition of Control Specific Binding
# T9 construct: purchased Millipore KinaseProfiler (kinases); Cerep (receptors and ion channels)
# RSK2 = target: T10, RSK2 (Homo sapiens, UniProt P51812); assay: Millipore kinase panel; assay type: biochemical; conditions: read-out: % Control
# T10 construct: purchased Millipore KinaseProfiler (kinases); Cerep (receptors and ion channels)
# CDK3/CYCLINE = target: T11, CDK3/CYCLINE (Homo sapiens, UniProt Q00526); assay: Millipore kinase panel; assay type: biochemical; conditions: read-out: % Control
# T11 construct: purchased Millipore KinaseProfiler (kinases); Cerep (receptors and ion channels)
# PASK = target: T12, PASK (Homo sapiens, UniProt Q96RG2); assay: Millipore kinase panel; assay type: biochemical; conditions: read-out: % Control
# T12 construct: purchased Millipore KinaseProfiler (kinases); Cerep (receptors and ion channels)
# CRAF = target: T13, CRAF (Homo sapiens, UniProt P04049); assay: Millipore kinase panel; assay type: biochemical; conditions: read-out: % Control
# T13 construct: purchased Millipore KinaseProfiler (kinases); Cerep (receptors and ion channels)
# LKB1 = target: T14, LKB1 (Homo sapiens, UniProt Q15831); assay: Millipore kinase panel; assay type: biochemical; conditions: read-out: % Control
# T14 construct: purchased Millipore KinaseProfiler (kinases); Cerep (receptors and ion channels)
# 5-HT5a (h) = target: T15, 5-HT5a (h) (Homo sapiens, UniProt P47898); assay: CEREP binding panel; conditions: agonist radioligand, read-out: % Inhibition of Control Specific Binding
# T15 construct: purchased Millipore KinaseProfiler (kinases); Cerep (receptors and ion channels)
# NEK6 = target: T16, NEK6 (Homo sapiens, UniProt Q9HC98); assay: Millipore kinase panel; assay type: biochemical; conditions: read-out: % Control
# T16 construct: purchased Millipore KinaseProfiler (kinases); Cerep (receptors and ion channels)
# ASK1 = target: T17, ASK1 (Homo sapiens, UniProt Q99683); assay: Millipore kinase panel; assay type: biochemical; conditions: read-out: % Control
# T17 construct: purchased Millipore KinaseProfiler (kinases); Cerep (receptors and ion channels)
# PYK2 = target: T18, PYK2 (Homo sapiens, UniProt Q14289); assay: Millipore kinase panel; assay type: biochemical; conditions: read-out: % Control
# T18 construct: purchased Millipore KinaseProfiler (kinases); Cerep (receptors and ion channels)
# ERBB4 = target: T19, ERBB4 (Homo sapiens, UniProt Q15303); assay: Millipore kinase panel; assay type: biochemical; conditions: read-out: % Control
# T19 construct: purchased Millipore KinaseProfiler (kinases); Cerep (receptors and ion channels)
# TRKA = target: T20, TRKA (Homo sapiens, UniProt P04629); assay: Millipore kinase panel; assay type: biochemical; conditions: read-out: % Control
# T20 construct: purchased Millipore KinaseProfiler (kinases); Cerep (receptors and ion channels)
# M1 (h) = target: T21, M1 (h) (Homo sapiens, UniProt P11229); assay: CEREP binding panel; conditions: antagonist radioligand, read-out: % Inhibition of Control Specific Binding
# T21 construct: purchased Millipore KinaseProfiler (kinases); Cerep (receptors and ion channels)
# δ2 (DOP) (h) = target: T22, δ2 (DOP) (h) (Homo sapiens, UniProt P41143); assay: CEREP binding panel; conditions: 10 μM, agonist radioligand
# T22 construct: purchased Millipore KinaseProfiler (kinases); Cerep (receptors and ion channels)
# NEK7 = target: T23, NEK7 (Homo sapiens, UniProt Q8TDX7); assay: Millipore kinase panel; assay type: biochemical; conditions: read-out: % Control
# T23 construct: purchased Millipore KinaseProfiler (kinases); Cerep (receptors and ion channels)
# MAPKAP-K2 = target: T24, MAPKAP-K2 (Homo sapiens, UniProt P49137); assay: Millipore kinase panel; assay type: biochemical; conditions: read-out: % Control
# T24 construct: purchased Millipore KinaseProfiler (kinases); Cerep (receptors and ion channels)
# PLK3 = target: T25, PLK3 (Homo sapiens, UniProt Q9H4B4); assay: Millipore kinase panel; assay type: biochemical; conditions: read-out: % Control
# T25 construct: purchased Millipore KinaseProfiler (kinases); Cerep (receptors and ion channels)
# RSK1 = target: T26, RSK1 (Homo sapiens, UniProt Q15418); assay: Millipore kinase panel; assay type: biochemical; conditions: read-out: % Control
# T26 construct: purchased Millipore KinaseProfiler (kinases); Cerep (receptors and ion channels)
# MT1 (ML1A) (h) = target: T27, MT1 (ML1A) (h) (Homo sapiens, UniProt P48039); assay: CEREP binding panel; conditions: agonist radioligand, read-out: % Inhibition of Control Specific Binding
# T27 construct: purchased Millipore KinaseProfiler (kinases); Cerep (receptors and ion channels)
# CLK3 = target: T28, CLK3 (Homo sapiens, UniProt P49761); assay: Millipore kinase panel; assay type: biochemical; conditions: read-out: % Control
# T28 construct: purchased Millipore KinaseProfiler (kinases); Cerep (receptors and ion channels)
# D1 (h) = target: T29, D1 (h) (Homo sapiens, UniProt P21728); assay: CEREP binding panel; conditions: antagonist radioligand, read-out: % Inhibition of Control Specific Binding
# T29 construct: purchased Millipore KinaseProfiler (kinases); Cerep (receptors and ion channels)
# PDGFRBETA = target: T30, PDGFRBETA (Homo sapiens, UniProt P09619); assay: Millipore kinase panel; assay type: biochemical; conditions: read-out: % Control
# T30 construct: purchased Millipore KinaseProfiler (kinases); Cerep (receptors and ion channels)
# CLK2 = target: T31, CLK2 (Homo sapiens, UniProt P49760); assay: Millipore kinase panel; assay type: biochemical; conditions: read-out: % Control
# T31 construct: purchased Millipore KinaseProfiler (kinases); Cerep (receptors and ion channels)
# CK1GAMMA1 = target: T32, CK1GAMMA1 (Homo sapiens, UniProt Q9HCP0); assay: Millipore kinase panel; assay type: biochemical; conditions: read-out: % Control
# T32 construct: purchased Millipore KinaseProfiler (kinases); Cerep (receptors and ion channels)
# PRKAA1 = target: T33, PRKAA1 (Homo sapiens, UniProt Q13131); assay: Millipore kinase panel; assay type: biochemical; conditions: read-out: % Control
# T33 construct: purchased Millipore KinaseProfiler (kinases); Cerep (receptors and ion channels)
# ABL = target: T34, ABL (Homo sapiens, UniProt P00519); assay: Millipore kinase panel; assay type: biochemical; conditions: read-out: % Control
# T34 construct: purchased Millipore KinaseProfiler (kinases); Cerep (receptors and ion channels)
# [2] = target: T35, norepinephrine transporter (h) (Homo sapiens, UniProt P23975); assay: CEREP binding panel; conditions: antagonist radioligand, read-out: % Inhibition of Control Specific Binding
# T35 construct: purchased Millipore KinaseProfiler (kinases); Cerep (receptors and ion channels)
# CAMKIV = target: T36, CAMKIV (Homo sapiens, UniProt Q16566); assay: Millipore kinase panel; assay type: biochemical; conditions: read-out: % Control
# T36 construct: purchased Millipore KinaseProfiler (kinases); Cerep (receptors and ion channels)
# A3 (h) = target: T37, A3 (h) (Homo sapiens, UniProt P0DMS8); assay: CEREP binding panel; conditions: agonist radioligand, read-out: % Inhibition of Control Specific Binding
# T37 construct: purchased Millipore KinaseProfiler (kinases); Cerep (receptors and ion channels)
# IGF-1R, ACTIVATED = target: T38, IGF-1R, ACTIVATED (Homo sapiens, UniProt P08069); assay: Millipore kinase panel; assay type: biochemical; conditions: read-out: % Control
# T38 construct: purchased Millipore KinaseProfiler (kinases); Cerep (receptors and ion channels)
# VPAC1 (VIP1) (h) = target: T39, VPAC1 (VIP1) (h) (Homo sapiens, UniProt P32241); assay: CEREP binding panel; conditions: agonist radioligand, read-out: % Inhibition of Control Specific Binding
# T39 construct: purchased Millipore KinaseProfiler (kinases); Cerep (receptors and ion channels)
# TAO1 = target: T40, TAO1 (Homo sapiens, UniProt Q7L7X3); assay: Millipore kinase panel; assay type: biochemical; conditions: read-out: % Control
# T40 construct: purchased Millipore KinaseProfiler (kinases); Cerep (receptors and ion channels)
# CHK2 = target: T41, CHK2 (Homo sapiens, UniProt O96017); assay: Millipore kinase panel; assay type: biochemical; conditions: read-out: % Control
# T41 construct: purchased Millipore KinaseProfiler (kinases); Cerep (receptors and ion channels)
# MEK1 = target: T42, MEK1 (Homo sapiens, UniProt Q02750); assay: Millipore kinase panel; assay type: biochemical; conditions: read-out: % Control
# T42 construct: purchased Millipore KinaseProfiler (kinases); Cerep (receptors and ion channels)
# T30 sequence (P09619 33-1106): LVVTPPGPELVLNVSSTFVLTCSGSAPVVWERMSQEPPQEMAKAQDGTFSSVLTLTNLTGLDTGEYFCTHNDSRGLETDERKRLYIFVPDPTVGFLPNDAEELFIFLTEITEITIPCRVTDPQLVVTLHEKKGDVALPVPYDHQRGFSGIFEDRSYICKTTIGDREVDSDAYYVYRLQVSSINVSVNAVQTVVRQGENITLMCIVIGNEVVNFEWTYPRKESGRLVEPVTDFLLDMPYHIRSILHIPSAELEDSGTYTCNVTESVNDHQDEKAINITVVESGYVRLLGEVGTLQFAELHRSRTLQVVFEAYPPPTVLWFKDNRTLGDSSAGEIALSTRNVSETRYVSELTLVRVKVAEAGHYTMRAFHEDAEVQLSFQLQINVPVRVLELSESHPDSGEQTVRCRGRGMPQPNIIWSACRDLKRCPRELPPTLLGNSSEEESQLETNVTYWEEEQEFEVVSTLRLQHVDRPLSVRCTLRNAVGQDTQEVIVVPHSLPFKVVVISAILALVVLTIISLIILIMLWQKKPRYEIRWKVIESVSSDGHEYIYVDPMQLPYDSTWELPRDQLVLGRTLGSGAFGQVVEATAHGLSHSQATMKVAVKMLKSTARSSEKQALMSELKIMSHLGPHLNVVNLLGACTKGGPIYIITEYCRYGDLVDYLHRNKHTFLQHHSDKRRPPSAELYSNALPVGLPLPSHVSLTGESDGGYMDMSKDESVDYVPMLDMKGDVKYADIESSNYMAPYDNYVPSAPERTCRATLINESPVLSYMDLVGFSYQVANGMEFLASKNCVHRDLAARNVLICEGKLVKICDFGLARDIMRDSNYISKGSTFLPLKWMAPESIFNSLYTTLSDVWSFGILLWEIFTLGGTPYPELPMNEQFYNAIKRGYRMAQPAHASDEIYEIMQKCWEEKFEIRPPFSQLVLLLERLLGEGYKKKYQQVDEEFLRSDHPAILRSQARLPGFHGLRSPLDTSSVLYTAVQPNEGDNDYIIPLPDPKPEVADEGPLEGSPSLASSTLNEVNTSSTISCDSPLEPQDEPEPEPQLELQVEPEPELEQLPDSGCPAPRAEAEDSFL
# T20 sequence (P04629 33-796): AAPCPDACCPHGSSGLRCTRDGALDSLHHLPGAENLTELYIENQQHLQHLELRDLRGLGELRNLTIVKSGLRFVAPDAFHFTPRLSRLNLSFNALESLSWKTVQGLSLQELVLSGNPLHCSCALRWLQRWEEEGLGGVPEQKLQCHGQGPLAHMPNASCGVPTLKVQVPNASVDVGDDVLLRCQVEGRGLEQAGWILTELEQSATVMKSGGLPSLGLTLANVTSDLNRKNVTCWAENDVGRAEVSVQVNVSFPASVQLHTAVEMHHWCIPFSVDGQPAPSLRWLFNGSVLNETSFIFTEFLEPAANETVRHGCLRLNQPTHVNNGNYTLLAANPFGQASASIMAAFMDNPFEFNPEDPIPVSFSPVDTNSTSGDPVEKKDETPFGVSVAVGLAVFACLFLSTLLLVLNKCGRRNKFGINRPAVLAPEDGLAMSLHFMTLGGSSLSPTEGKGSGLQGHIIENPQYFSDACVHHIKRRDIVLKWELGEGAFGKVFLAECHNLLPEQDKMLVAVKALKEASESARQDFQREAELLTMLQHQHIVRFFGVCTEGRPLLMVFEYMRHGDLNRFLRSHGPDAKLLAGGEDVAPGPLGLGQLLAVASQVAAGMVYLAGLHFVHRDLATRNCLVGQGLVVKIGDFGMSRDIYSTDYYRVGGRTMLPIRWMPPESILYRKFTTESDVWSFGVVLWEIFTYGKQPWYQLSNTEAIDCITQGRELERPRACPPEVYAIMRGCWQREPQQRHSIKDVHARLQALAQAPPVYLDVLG
# T12 sequence (Q96RG2 whole entry): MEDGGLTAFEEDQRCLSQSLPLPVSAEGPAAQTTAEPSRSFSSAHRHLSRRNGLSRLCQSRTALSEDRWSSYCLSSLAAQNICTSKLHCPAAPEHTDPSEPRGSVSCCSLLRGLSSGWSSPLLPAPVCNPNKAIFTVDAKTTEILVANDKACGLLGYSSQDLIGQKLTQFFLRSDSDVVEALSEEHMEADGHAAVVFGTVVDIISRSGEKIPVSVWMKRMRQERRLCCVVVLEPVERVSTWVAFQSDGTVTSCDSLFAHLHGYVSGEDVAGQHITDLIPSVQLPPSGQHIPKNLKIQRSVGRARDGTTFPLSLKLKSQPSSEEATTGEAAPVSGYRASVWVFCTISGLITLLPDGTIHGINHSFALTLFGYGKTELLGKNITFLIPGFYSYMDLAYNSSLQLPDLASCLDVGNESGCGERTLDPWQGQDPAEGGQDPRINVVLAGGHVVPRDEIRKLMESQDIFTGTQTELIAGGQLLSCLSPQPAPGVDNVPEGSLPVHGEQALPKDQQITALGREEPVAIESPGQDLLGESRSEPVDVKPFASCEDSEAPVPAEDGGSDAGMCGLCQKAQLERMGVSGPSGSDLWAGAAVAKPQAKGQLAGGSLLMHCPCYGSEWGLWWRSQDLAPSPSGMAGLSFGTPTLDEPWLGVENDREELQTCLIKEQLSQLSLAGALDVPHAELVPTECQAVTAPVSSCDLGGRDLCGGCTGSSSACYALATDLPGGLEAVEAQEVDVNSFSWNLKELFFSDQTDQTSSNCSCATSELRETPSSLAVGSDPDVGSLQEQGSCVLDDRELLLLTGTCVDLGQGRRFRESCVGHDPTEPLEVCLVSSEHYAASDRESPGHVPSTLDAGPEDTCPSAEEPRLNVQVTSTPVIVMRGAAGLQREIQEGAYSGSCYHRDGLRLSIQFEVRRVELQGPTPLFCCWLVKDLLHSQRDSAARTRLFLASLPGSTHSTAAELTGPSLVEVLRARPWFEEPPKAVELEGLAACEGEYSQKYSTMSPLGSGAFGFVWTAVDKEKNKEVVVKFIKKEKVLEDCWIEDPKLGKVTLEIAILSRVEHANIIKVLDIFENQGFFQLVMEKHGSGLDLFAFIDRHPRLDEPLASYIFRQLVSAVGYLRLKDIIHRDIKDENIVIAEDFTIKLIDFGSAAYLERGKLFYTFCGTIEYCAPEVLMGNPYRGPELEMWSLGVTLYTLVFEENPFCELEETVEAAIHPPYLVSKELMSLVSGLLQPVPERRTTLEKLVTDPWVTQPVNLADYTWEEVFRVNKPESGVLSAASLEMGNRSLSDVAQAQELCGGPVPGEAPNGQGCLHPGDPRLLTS
# T16 sequence (Q9HC98 whole entry): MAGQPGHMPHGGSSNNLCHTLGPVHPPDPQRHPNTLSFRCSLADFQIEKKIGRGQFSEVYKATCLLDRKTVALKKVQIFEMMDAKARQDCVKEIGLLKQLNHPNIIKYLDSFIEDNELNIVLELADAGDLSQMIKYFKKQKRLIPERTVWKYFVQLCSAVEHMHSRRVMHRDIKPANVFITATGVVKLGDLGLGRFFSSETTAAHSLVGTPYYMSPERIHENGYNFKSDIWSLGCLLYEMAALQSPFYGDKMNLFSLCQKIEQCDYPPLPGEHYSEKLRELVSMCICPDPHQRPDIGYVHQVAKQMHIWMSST
# T21 sequence (P11229 whole entry): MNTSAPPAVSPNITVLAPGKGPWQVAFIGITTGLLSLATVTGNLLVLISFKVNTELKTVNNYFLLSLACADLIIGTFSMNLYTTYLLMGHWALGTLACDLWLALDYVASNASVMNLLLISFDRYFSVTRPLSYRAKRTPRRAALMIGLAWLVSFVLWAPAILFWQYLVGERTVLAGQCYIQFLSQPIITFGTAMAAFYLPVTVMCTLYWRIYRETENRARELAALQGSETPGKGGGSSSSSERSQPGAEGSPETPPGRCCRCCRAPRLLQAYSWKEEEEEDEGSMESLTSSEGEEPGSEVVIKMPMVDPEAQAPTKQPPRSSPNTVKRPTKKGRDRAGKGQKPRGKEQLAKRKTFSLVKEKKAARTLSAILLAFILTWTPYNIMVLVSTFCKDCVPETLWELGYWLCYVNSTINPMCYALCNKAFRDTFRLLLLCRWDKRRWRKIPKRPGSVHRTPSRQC
# T32 sequence (Q9HCP0 whole entry): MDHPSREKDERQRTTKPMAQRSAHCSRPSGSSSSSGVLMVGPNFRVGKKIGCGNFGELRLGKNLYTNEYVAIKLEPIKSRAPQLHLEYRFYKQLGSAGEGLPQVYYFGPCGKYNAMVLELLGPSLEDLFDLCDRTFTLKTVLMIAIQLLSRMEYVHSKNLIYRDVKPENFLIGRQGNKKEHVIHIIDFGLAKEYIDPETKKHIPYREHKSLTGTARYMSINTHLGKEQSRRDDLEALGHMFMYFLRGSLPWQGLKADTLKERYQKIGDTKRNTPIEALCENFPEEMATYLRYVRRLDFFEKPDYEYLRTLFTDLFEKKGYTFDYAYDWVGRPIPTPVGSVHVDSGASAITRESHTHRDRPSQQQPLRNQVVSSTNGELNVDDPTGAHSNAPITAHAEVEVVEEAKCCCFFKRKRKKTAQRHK
# T28 sequence (P49761 whole entry): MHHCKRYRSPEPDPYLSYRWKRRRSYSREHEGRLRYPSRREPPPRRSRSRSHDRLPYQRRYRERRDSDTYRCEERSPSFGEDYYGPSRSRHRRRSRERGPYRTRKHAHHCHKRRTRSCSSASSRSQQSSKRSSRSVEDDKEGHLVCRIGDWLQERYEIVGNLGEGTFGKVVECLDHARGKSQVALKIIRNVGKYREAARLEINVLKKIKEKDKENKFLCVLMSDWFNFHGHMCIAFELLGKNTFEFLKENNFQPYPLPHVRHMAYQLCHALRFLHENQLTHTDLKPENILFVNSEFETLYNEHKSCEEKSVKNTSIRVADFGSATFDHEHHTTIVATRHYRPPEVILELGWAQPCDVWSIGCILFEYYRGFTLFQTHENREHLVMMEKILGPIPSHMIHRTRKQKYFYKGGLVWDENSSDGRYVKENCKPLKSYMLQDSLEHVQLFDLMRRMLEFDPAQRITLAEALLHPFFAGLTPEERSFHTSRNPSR
smiles,measurement,setting,value
"Cn1cc(-c2ccc(-c3cncc(Cl)c3N3CCC4(CCNC4=O)CC3)cc2)cn1 [Compound 74, 8-(3-Chloro-5-(4-(1-methyl-1H-pyrazol-4-yl)phenyl)pyridin-4-yl)-2,8-diazaspiro[4.5]decan-1-one]",inhibition at 10 µM,M3 (h),46%
same,remaining activity at 1 µM,SRC,-6%
same,remaining activity at 1 µM,FGFR2,-6%
same,% Inhibition of Control Specific Binding,[1],7%
same,remaining activity at 1 µM,PRKX,2%
same,remaining activity at 1 µM,PIM-1,-11%
same,IC50,PKG1BETA,> 10 µM
same,remaining activity at 1 µM,MSSK1,-2%
same,remaining activity at 1 µM,NEK2,6%
same,inhibition at 10 µM,CCK1 (CCKA) (h),2%
same,remaining activity at 1 µM,RSK2,-12%
same,remaining activity at 1 µM,CDK3/CYCLINE,1%
same,remaining activity at 1 µM,PASK,18%
same,remaining activity at 1 µM,CRAF,5%
same,remaining activity at 1 µM,LKB1,5%
same,inhibition at 10 µM,5-HT5a (h),1%
same,remaining activity at 1 µM,NEK6,-10%
same,remaining activity at 1 µM,ASK1,-15%
same,remaining activity at 1 µM,PYK2,5%
same,remaining activity at 1 µM,ERBB4,0%
same,remaining activity at 1 µM,TRKA,-7%
same,inhibition at 10 µM,M1 (h),21%
same,% Inhibition of Control Specific Binding,δ2 (DOP) (h),22%
same,remaining activity at 1 µM,NEK7,2%
same,remaining activity at 1 µM,MAPKAP-K2,0%
same,remaining activity at 1 µM,PLK3,0%
same,remaining activity at 1 µM,RSK1,-23%
same,inhibition at 10 µM,MT1 (ML1A) (h),34%
same,remaining activity at 1 µM,CLK3,-8%
same,inhibition at 10 µM,D1 (h),7%
same,remaining activity at 1 µM,PDGFRBETA,-6%
same,remaining activity at 1 µM,CLK2,-19%
same,remaining activity at 1 µM,CK1GAMMA1,-25%
same,remaining activity at 1 µM,PRKAA1,2%
same,remaining activity at 1 µM,ABL,-5%
same,inhibition at 10 µM,[2],14%
same,remaining activity at 1 µM,CAMKIV,6%
same,inhibition at 10 µM,A3 (h),17%
same,remaining activity at 1 µM,"IGF-1R, ACTIVATED",11%
same,inhibition at 10 µM,VPAC1 (VIP1) (h),0%
same,remaining activity at 1 µM,TAO1,-14%
same,remaining activity at 1 µM,CHK2,7%
same,remaining activity at 1 µM,MEK1,10%
